Key:
TRα = molecular target: T1, TRα (Homo sapiens, UniProt P10827); assay: Thyroid-hormone reporter-gene assay, TRα (Gal4 DBD hybrid, luciferase, HEK293); assay type: cell-based; settings: reporter cells derived from HEK293, 24 hr incubation, luciferase readout
T1 construct: expressed in transfected cells; host or cells: HEK293
T1 sequence (P10827 128-410 isoform P10827-2 limits assumed): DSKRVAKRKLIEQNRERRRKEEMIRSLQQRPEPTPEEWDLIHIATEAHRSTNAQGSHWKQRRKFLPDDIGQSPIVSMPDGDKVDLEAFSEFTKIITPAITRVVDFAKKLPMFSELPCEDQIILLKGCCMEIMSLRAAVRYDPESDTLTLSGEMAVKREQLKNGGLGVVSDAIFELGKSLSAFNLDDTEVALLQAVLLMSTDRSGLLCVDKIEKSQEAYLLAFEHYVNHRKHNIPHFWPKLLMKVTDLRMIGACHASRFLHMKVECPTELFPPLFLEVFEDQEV
Experimental: (§1) Compounds were tested for thyroid-hormone receptor activity using TR reporter-gene assays. Reporter cells used in the assays express a TR-receptor hybrid (either TRα or TRβ) in which the native N-terminal DNA binding domain (DBD) has been replaced with that of the yeast Gal4 DBD. The reporter gene, firefly luciferase, is functionally linked to the Gal4 upstream activation sequence (UAS). Both cell lines were derived from human embryonic kidney (HEK293).
(§2) A suspension of reporter cells was prepared in cell recovery medium containing 10% charcoal-stripped FBS, and dispensed into assay plates. The plates were pre-incubated for 6 hours in a cell culture incubator (37° C./5% CO2/85% humidity).
(§3) These intermediate stocks were subsequently diluted directly into compound screening medium containing 10% charcoal-stripped FBS to generate “2×-concentration” treatment media (containing 0.2, 0.4 or 0.8% DMSO).
(§4) At the end of the pre-incubation period, culture media were discarded from the assay plates, and all wells received 100 μl of compound screening medium. 100 μl of each of the previously prepared “2×-concentration” treatment media were dispensed into duplicate assay wells, thereby achieving the desired final treatment concentrations. The final concentration of DMSO in all assay wells was 0.1, 0.2 or 0.4%. Assay plates were incubated for 24 hr in a cell culture incubator (37° C./5% CO2/85% humidity).
(§5) At the 24 h assay endpoint, treatment media were discarded and […] of luciferase detection reagent was added. Relative luminometer units (RLUs) were quantified from each assay well.

TRβ = molecular target: T2, TRβ (Homo sapiens, UniProt P10828); assay: Thyroid-hormone reporter-gene assay, TRβ (Gal4 DBD hybrid, luciferase, HEK293); assay type: cell-based; settings: for T3-SI, selectivity index (SI) calculated as EC50 (TRα)/EC50 (TRβ): TRβ over TRα selectivity from reporter-gene EC50 values; for EC50: reporter cells derived from HEK293, 24 hr incubation, luciferase readout
T2 construct: expressed in transfected cells; host or cells: HEK293
T2 sequence (P10828 217-461 limits assumed): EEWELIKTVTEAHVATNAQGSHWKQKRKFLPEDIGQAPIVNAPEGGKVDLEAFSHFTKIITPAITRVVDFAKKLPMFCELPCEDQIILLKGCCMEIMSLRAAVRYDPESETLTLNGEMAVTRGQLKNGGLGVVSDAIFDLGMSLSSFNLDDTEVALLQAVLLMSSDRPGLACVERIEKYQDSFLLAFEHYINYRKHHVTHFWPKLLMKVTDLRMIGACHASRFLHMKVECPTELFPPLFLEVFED
Experimental: as §1, §2, §3, §4, §5

EC50 (TRα) [nM] | T3-SI, selectivity index (SI) calculated as EC50 (TRα)/EC50 (TRβ) (TRβ) | EC50 (TRβ) [nM] | SMILES
100 to 1000 | ++ (3X < T3-SI ≤ 30X) | 100 to 1000 | O=C(O)COc1cc(Cl)c(Cc2ccc(O)c(Cc3ccc(F)cc3F)c2)c(Cl)c1 [Compound 88, 2-(3,5-dichloro-4-(3-(2,4-difluorobenzyl)-4-hydroxybenzyl)phenoxy)acetic Acid]
100 to 1000 | ++ (3X < T3-SI ≤ 30X) | 10 to 100 | CCC(c1ccc(F)cc1)c1cc(Cc2c(Cl)cc(OCC(=O)O)cc2Cl)ccc1O (stereo not drawn) [Compound 98, 2-(3,5-dichloro-4-(3-(1-(4-fluorophenyl)propyl)-4-hydroxybenzyl)phenoxy)acetic Acid]
> 1000 | +++ (T3-SI > 30X) | 100 to 1000 | CCCC(c1ccc(F)cc1)c1cc(Cc2c(Cl)cc(OCC(=O)O)cc2Cl)ccc1O (stereo not drawn) [Compound 102, 2-(3,5-dichloro-4-(3-(1-(4-fluorophenyl)butyl)-4-hydroxybenzyl)phenoxy) acetic Acid]
100 to 1000 | ++ (3X < T3-SI ≤ 30X) | 10 to 100 | CC(C)C(c1ccc(F)cc1)c1cc(Cc2c(Cl)cc(OCC(=O)O)cc2Cl)ccc1O (stereo not drawn) [Compound 104, 2-(3,5-dichloro-4-(3-(1-(4-fluorophenyl)-2-methylpropyl)-4-hydroxybenzyl)phenoxy)acetic Acid]
100 to 1000 | ++ (3X < T3-SI ≤ 30X) | 10 to 100 | CC(C)(c1ccc(F)cc1)c1cc(Cc2c(Cl)cc(OCC(=O)O)cc2Cl)ccc1O [Compound 105, 2-(3,5-dichloro-4-(3-(2-(4-fluorophenyl)propan-2-yl)-4-hydroxybenzyl)phenoxy)acetic Acid]
100 to 1000 | ++ (3X < T3-SI ≤ 30X) | 10 to 100 | O=C(O)COc1cc(Cl)c(Cc2ccc(O)c(C(c3ccc(F)cc3)C3CC3)c2)c(Cl)c1 (stereo not drawn) [Compound 107, 2-(3,5-dichloro-4-(3-(cyclopropyl(4-fluorophenyl)methyl)-4-hydroxybenzyl)phenoxy)acetic Acid]
> 1000 | +++ (T3-SI > 30X) | 100 to 1000 | O=C(O)COc1cc(Cl)c(Cc2ccc(O)c(C(c3ccc(F)cc3)C3CCC3)c2)c(Cl)c1 (stereo not drawn) [Compound 109, 2-(3,5-dichloro-4-(3-(cyclobutyl(4-fluorophenyl)methyl)-4-hydroxybenzyl)phenoxy)acetic Acid]
100 to 1000 | ++ (3X < T3-SI ≤ 30X) | 10 to 100 | O=C(O)COc1cc(Cl)c(Cc2ccc(O)c(C(c3ccc(F)cc3)C(F)(F)F)c2)c(Cl)c1 (stereo not drawn) [Compound 125]
100 to 1000 | ++ (3X < T3-SI ≤ 30X) | 10 to 100 | O=C(O)COc1cc(Cl)c(Cc2ccc(O)c(C(CC(F)(F)F)c3ccc(F)cc3)c2)c(Cl)c1 (stereo not drawn) [Compound 127, 2-(3,5-dichloro-4-(4-hydroxy-3-(3,3,3-trifluoro-1-(4-fluorophenyl)propyl)benzyl)phenoxy)acetic Acid]
> 1000 | +++ (T3-SI > 30X) | 100 to 1000 | COCC(c1ccc(F)cc1)c1cc(Cc2c(Cl)cc(OCC(=O)O)cc2Cl)ccc1O (stereo not drawn) [Compound 129, 2-(3,5-dichloro-4-(3-(1-(4-fluorophenyl)-2-methoxyethyl)-4-hydroxybenzyl)phenoxy)acetic Acid]
10 to 100 | ++ (3X < T3-SI ≤ 30X) | < 10 | Cc1cc(OCC(=O)O)cc(Br)c1Cc1ccc(O)c(C(C)c2ccc(F)cc2)c1 (stereo not drawn) [Compound 131, 2-(3-bromo-4-(3-(1-(4-fluorophenyl)ethyl)-4-hydroxybenzyl)-5-methylphenoxy)acetic Acid]
> 1000 | ++ (3X < T3-SI ≤ 30X) | > 1000 | O=C(O)COc1cc(Cl)c(Cc2ccc(O)c(CCc3ccc(F)cc3)c2)c(Cl)c1 [Compound 135, 2-(3,5-dichloro-4-(3-(4-fluorophenethyl)-4-hydroxybenzyl)phenoxy)acetic Acid]

The remaining lines, values behind:

SMILES | EC50 (TRα) [nM] | T3-SI, selectivity index (SI) calculated as EC50 (TRα)/EC50 (TRβ) (TRβ) | EC50 (TRβ) [nM]
O=C(O)COc1cc(Cl)c(Cc2ccc(O)c(Cc3cccc(F)c3)c2)c(Cl)c1 [Compound 86, 2-(3,5-dichloro-4-(3-(3-fluorobenzyl)-4-hydroxybenzyl)phenoxy)acetic Acid] | > 1000 | ++ (3X < T3-SI ≤ 30X) | > 1000
O=C(O)COc1cc(Cl)c(Cc2ccc(O)c(Cc3ccc(Cl)cc3)c2)c(Cl)c1 [Compound 90, 2-(3,5-dichloro-4-(3-(4-chlorobenzyl)-4-hydroxybenzyl)phenoxy)acetic Acid] | > 1000 | ++ (3X < T3-SI ≤ 30X) | > 1000
O=C(O)COc1cc(Cl)c(Cc2ccc(O)c(C3CCCc4cc(F)ccc43)c2)c(Cl)c1 (stereo not drawn) [Compound 111, 2-(3,5-dichloro-4-(3-(6-fluoro-1,2,3,4-tetrahydronaphthalen-1-yl)-4-hydroxybenzyl)phenoxy)acetic Acid] | 100 to 1000 | ++ (3X < T3-SI ≤ 30X) | 100 to 1000
O=C(O)COc1cc(Cl)c(Cc2ccc(O)c(C3CCc4cc(F)ccc43)c2)c(Cl)c1 (stereo not drawn) [Compound 113, 2-(3,5-dichloro-4-(3-(5-fluoro-2,3-dihydro-1H-inden-1-yl)-4-hydroxybenzyl)phenoxy)acetic Acid] | > 1000 | ++ (3X < T3-SI ≤ 30X) | > 1000
Cc1cc(OCC(=O)O)cc(Cl)c1Cc1ccc(O)c(Cc2ccc(F)cc2)c1 [Compound 115, 2-(3-chloro-4-(3-(4-fluorobenzyl)-4-hydroxybenzyl)-5-methylphenoxy) acetic Acid] | 100 to 1000 | ++ (3X < T3-SI ≤ 30X) | 10 to 100
O=C(O)COc1cc(Cl)c(Cc2ccc(O)c(Cc3ccoc3)c2)c(Cl)c1 [Compound 119, 2-(3,5-dichloro-4-(3-(furan-3-ylmethyl)-4-hydroxybenzyl)phenoxy)acetic Acid] | > 1000 | ++ (3X < T3-SI ≤ 30X) | 100 to 1000
O=C(O)COc1cc(Cl)c(Cc2ccc(O)c(Cc3ccsc3)c2)c(Cl)c1 [Compound 121, 2-(3,5-dichloro-4-(4-hydroxy-3-(thiophen-3-ylmethyl)benzyl)phenoxy) acetic Acid] | > 1000 | ++ (3X < T3-SI ≤ 30X) | 100 to 1000
O=C(O)COc1cc(Cl)c(Cc2ccc(O)c(Cc3cccs3)c2)c(Cl)c1 [Compound 123, 2-(3,5-dichloro-4-(4-hydroxy-3-(thiophen-2-ylmethyl)benzyl)phenoxy) acetic Acid] | > 1000 | ++ (3X < T3-SI ≤ 30X) | 100 to 1000
Cc1cc(OCC(=O)O)cc(C)c1Cc1ccc(O)c(Cc2ccc(F)cc2)c1 [Compound 133, 2-(4-(3-(4-fluorobenzyl)-4-hydroxybenzyl)-3,5-dimethylphenoxy)acetic Acid] | 100 to 1000 | ++ (3X < T3-SI ≤ 30X) | 10 to 100
O=C(COc1cc(Cl)c(Cc2ccc(O)c(-c3cccc(OC(F)F)c3)c2)c(Cl)c1)N1CC1 [Compound 138, 1-(aziridin-1-yl)-2-(3,5-dichloro-4-((3′-(difluoromethoxy)-6-hydroxy-[1,1′-biphenyl]-3-yl)methyl)phenoxy)ethan-1-one] | > 1000 | ++ (3X < T3-SI ≤ 30X) | 100 to 1000

Reference: patent publication US11667606B2, “Thyromimetics” (Autobahn Therapeutics, Inc., priority 2019, dated 2023)
